Test results: ChEMBL document CHEMBL1201862, “PubChem BioAssay data set” (2004)
Calls of active or inactive are those of the source.

Legend:
[1] = Luminescence Cell-Based Dose Response HTS to Identify Inhibitors of 5'UTR Stem-Loop Driven Prion Protein mRNA Translation in H4 Neuroglioblastoma Cells. [Related pubchem assays: 1827 (Project Summary), 1813 (Primary HTS)]; assay type: functional
[2] = luciferase reporter signal suppression in cells – H4 neuroglioma cells, luminescence, dose response (AID 1990); assay type: functional, cell-based
[3] = restored growth of temperature-sensitive Burl-1 yeast – whole organism, S. cerevisiae, Burl-1 ts mutant, luminescence, counter-screen for SUMOylation pathway inhibitor project, dose response (AID 463199); assay type: functional
H9c2 = test: cells; assay type: functional, cell-based; details: Rattus norvegicus, H9c2, Myocardium;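 also: confirmatory concentration-response retest of ultra-high-throughput screening hits for modulation of myocardial damage; cell death induced by hydrogen peroxide oxidative stress; compound pretreatment for 60 min then peroxide exposure for 2 h; potency is for protecting the cells against peroxide damage rather than for killing them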
[4] = alpha-synuclein stem-loop luciferase translation blockers – H4 neuroglioma cells, luminescence, confirmation (AID 1988); assay type: functional, cell-based
[5] = target: T1, G-protein coupled receptor 55 (Homo sapiens, UniProt Q9Y2T6); test: blockers of GPR55 signalling, imaged – imaging, image-based, counter-screen for GPR35 antagonist project, SAR follow-up (AID 2397); assay type: functional
[6] = target: Tyrosine-protein phosphatase non-receptor type 12 (Homo sapiens, UniProt Q05209); test: SAR Selectivity Analysis of small molecule inhibitors of PEST using pCAP in a fluorescence assay. [Related pubchem assays (depositor defined):AID1779, AID1784, AID2135]; assay type: functional
[7] = target: T2, Tyrosine-protein phosphatase non-receptor type 7 (Homo sapiens, UniProt P35236); test: inhibition of hematopoietic tyrosine phosphatase HePTP – biochemical, set 2, SAR follow-up (AID 449736); assay type: functional
T2 sequence (P35236 whole entry): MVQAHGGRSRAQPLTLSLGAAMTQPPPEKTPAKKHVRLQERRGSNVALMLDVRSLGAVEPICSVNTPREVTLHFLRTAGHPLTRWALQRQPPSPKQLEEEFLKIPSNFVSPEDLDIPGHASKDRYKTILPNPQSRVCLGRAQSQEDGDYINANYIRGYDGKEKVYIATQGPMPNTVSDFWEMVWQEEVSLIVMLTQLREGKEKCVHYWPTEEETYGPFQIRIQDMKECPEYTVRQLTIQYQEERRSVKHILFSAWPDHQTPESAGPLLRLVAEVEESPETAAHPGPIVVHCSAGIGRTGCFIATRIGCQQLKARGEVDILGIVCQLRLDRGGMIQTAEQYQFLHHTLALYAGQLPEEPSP

[8] = target: T3, G-protein coupled receptor 35 (Homo sapiens, UniProt Q9HC97); test: inhibition of zaprinast-stimulated GPR35 beta-arrestin translocation – imaging, U2OS, beta-arrestin-GFP, zaprinast agonist, primary screen (AID 2058); assay type: functional;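 also: antagonist potency meaning inhibition of agonist-induced arrestin redistribution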
[9] = target: T3, G-protein coupled receptor 35; test: SAR Analysis for the identification of Selective Antagonists of ERK1/2 Activity in GPR35-Overexpressing U2OS Cells. [Related pubchem assays: 2079, 2058 ]; assay type: functional, cell-based
[10] = target: T1, G-protein coupled receptor 55; test: selective activators of receptor GPR55 – imaging, U2OS cells, beta-arrestin-GFP redistribution, primary screen (AID 1961); assay type: functional
[11] = target: T4, Tyrosine-protein phosphatase non-receptor type 22 (Homo sapiens, UniProt Q9Y2R2); test: inhibition of lymphoid tyrosine phosphatase LYP – biochemical, pCAP fluorogenic substrate, fluorescence, set 3, SAR follow-up (AID 449727); assay type: functional
T4 sequence (Q9Y2R2 whole entry): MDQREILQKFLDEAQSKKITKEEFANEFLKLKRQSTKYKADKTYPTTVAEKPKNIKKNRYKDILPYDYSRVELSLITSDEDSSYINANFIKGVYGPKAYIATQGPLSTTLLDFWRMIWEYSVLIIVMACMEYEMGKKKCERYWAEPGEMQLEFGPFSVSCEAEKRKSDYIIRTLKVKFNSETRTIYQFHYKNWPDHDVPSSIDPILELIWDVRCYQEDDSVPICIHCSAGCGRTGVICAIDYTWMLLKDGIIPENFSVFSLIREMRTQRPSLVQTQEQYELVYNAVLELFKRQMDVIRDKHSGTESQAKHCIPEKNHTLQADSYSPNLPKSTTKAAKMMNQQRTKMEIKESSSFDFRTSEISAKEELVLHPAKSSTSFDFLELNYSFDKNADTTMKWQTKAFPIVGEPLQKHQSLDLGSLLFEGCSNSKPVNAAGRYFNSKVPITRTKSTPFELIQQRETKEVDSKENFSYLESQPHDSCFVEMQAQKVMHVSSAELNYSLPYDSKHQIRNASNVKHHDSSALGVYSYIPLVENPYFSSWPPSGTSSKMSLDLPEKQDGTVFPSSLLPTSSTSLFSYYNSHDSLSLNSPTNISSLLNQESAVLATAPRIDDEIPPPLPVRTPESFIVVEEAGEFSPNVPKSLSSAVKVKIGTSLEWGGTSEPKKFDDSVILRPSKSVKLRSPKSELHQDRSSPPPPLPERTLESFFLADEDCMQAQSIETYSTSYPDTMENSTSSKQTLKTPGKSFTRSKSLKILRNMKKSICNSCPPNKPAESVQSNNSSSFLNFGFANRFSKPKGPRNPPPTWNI

[12] = target: T4, Tyrosine-protein phosphatase non-receptor type 22; test: SAR LYP1 Fluorescent Assay using OMFP substrate for In Vitro dose response studies - Set 3. [Related pubchem assays (depositor defined):AID1779, AID1784, AID2140, AID2686]; assay type: functional
Trypsin = Trypsin (Sus scrofa, UniProt P00761); test: trypsin protease activity blockade – biochemical, quenched peptide fluorescence, cherry-pick, selectivity assay for Rce1 protease inhibitor project, dose response (AID 488789)
CAAX prenyl protease 2 [13] = target: T5, CAAX prenyl protease 2 (Homo sapiens, UniProt Q9Y256); test: inhibition of Ras-converting CAAX protease Rce1 – biochemical, yeast membranes, quenched-peptide fluorescence, cherry-pick, dose response (AID 588849)
T5 sequence (Q9Y256 whole entry): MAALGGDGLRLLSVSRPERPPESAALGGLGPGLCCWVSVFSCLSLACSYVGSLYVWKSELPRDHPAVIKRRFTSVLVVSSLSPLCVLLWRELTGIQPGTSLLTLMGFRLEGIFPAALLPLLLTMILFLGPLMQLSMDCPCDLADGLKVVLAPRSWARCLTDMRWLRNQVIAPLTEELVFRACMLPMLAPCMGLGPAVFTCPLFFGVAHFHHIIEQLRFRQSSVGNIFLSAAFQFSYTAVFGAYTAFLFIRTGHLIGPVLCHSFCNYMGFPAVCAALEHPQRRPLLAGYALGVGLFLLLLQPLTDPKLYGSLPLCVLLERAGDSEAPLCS

Coagulation factor XII = target: T6, Coagulation factor XII (Homo sapiens, UniProt P00748); test: activated coagulation factor XII inhibitor potency, concentration-effect curve, cell-free (AID 716); assay type: functional
T6 sequence (P00748 whole entry): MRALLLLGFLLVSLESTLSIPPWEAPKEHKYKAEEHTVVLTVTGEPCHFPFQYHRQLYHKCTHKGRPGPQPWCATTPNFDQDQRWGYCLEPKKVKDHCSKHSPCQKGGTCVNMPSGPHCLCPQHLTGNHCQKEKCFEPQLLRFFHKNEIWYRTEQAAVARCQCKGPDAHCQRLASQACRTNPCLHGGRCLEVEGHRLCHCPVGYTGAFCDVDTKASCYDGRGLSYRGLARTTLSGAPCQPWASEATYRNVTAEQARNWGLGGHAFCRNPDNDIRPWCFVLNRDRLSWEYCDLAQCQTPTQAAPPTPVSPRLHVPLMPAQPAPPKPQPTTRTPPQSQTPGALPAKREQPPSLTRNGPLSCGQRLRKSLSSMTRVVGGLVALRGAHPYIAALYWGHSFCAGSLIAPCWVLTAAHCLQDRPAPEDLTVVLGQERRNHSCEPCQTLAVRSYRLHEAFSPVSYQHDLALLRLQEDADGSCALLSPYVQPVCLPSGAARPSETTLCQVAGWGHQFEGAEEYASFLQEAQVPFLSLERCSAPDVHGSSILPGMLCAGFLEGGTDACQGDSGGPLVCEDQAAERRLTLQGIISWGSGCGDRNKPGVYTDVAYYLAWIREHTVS

CAAX prenyl protease 2 [14] = target: T7, CAAX prenyl protease 2 (Saccharomyces cerevisiae S288c, UniProt Q03530); assay type: biochemical
T7 sequence (Q03530 whole entry): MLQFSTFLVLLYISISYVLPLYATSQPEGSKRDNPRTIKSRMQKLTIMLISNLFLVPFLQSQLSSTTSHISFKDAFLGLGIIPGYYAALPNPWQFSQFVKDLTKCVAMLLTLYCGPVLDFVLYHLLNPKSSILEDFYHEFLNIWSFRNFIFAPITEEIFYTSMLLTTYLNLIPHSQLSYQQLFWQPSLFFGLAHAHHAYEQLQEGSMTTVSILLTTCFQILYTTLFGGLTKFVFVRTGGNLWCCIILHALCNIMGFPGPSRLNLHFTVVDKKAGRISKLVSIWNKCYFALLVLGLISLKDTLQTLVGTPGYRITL

Protein RecA = target: T8, Protein RecA (Mycobacterium tuberculosis, UniProt P9WHJ3); test: Fluorescence Cell-Free Homogeneous Dose Retest to Identify Inhibitors of RecA-Intein Splicing Activity. [Related pubchem assays (depositor defined):AID2097, AID2223, AID489010, AID492950]; assay type: functional
T8 sequence (P9WHJ3 whole entry): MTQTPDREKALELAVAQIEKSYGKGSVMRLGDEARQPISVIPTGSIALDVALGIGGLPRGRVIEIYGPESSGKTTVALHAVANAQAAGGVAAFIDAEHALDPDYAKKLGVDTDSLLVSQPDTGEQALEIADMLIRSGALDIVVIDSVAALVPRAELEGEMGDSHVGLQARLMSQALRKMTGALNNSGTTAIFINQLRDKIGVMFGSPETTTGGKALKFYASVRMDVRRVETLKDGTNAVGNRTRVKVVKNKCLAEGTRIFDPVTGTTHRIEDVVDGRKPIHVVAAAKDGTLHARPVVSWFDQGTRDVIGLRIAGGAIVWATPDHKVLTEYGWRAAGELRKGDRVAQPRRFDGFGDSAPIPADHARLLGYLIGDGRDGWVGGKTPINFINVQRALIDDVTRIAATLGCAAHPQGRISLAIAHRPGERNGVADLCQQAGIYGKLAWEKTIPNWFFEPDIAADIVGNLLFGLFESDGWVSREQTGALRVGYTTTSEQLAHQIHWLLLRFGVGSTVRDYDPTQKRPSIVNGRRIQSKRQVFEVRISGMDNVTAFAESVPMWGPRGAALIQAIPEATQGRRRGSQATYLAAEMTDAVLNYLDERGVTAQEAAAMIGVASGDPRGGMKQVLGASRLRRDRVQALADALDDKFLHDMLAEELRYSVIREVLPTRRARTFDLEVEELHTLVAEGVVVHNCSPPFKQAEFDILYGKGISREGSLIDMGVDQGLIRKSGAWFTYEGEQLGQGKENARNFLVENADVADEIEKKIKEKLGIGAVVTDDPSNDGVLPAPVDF

CAAX prenyl protease 1 = CAAX prenyl protease 1 (Saccharomyces cerevisiae S288c, UniProt P47154); test: yeast CAAX protease Ste24 inhibition – biochemical, S. cerevisiae, plate reader, cherry-pick, dose response (AID 488815)
[15] = target: T9, Replicative DNA helicase DnaB (Mycobacterium tuberculosis, UniProt P9WMR3); test: DnaB intein splicing inhibitors, dose response, biochemical, cell-free fluorescence (AID 449749); assay type: functional
T9 sequence (P9WMR3 whole entry): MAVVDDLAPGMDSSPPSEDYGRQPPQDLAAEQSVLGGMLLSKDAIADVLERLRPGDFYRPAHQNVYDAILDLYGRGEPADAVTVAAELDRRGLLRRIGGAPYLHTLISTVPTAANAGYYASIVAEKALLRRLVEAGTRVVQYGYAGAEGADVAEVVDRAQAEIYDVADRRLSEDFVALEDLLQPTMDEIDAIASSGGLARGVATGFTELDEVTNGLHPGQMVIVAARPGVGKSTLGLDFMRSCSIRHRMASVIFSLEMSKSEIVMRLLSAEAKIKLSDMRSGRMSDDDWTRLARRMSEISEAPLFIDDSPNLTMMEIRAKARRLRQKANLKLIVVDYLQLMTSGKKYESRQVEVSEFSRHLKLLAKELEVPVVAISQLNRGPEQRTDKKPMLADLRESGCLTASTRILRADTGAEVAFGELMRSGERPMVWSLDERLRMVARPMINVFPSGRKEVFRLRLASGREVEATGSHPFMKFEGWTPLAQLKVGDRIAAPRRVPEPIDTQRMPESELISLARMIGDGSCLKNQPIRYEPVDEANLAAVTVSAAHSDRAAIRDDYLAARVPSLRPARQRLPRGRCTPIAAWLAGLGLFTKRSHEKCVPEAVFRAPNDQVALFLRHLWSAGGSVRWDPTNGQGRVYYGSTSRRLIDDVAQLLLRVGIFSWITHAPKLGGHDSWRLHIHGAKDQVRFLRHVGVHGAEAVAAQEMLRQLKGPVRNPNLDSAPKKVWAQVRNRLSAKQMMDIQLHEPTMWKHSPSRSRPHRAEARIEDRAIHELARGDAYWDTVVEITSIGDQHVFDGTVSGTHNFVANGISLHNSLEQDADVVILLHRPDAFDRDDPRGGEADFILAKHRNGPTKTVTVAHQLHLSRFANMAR

SUMO E1/E2 = SUMO E1/E2 (Homo sapiens, UniProt P63279+Q9UBE0+Q9UBT2); test: SAR analysis of SUMOylation using HTRF in an in-Vitro dose response assay. [Related pubchem assays (depositor defined):AID2006, AID2011, AID2018, AID2069, AID2658]; assay type: functional
Chain of SUMO E1/E2 (Q9UBE0 whole entry): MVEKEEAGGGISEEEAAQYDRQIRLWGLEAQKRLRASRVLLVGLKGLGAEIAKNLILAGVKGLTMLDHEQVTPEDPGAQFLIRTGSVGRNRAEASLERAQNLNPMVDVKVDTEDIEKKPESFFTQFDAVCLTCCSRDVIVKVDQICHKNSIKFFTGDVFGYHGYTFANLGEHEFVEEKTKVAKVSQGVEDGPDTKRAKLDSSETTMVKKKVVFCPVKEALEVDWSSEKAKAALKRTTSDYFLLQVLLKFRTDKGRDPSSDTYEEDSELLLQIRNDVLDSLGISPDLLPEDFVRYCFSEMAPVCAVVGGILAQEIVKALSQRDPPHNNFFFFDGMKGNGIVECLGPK
Chain of SUMO E1/E2 (Q9UBT2 whole entry): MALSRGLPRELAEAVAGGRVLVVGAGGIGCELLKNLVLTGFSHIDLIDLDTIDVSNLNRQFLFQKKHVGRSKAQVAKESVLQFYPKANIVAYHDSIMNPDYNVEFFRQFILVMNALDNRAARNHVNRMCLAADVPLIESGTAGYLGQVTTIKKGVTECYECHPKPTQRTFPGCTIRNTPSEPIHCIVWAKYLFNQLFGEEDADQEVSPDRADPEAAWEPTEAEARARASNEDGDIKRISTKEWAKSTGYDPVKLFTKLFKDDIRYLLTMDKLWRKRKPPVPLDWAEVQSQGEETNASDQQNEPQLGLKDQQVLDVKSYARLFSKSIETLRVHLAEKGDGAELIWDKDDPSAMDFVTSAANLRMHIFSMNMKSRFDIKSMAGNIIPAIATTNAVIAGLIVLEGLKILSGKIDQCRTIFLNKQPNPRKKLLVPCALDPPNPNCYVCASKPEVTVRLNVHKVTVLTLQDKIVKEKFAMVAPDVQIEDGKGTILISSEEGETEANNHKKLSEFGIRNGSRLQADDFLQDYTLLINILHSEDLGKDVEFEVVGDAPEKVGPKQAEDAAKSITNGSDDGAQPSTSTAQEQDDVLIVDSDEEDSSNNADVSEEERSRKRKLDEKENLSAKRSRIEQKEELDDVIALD
Chain of SUMO E1/E2 (P63279 whole entry): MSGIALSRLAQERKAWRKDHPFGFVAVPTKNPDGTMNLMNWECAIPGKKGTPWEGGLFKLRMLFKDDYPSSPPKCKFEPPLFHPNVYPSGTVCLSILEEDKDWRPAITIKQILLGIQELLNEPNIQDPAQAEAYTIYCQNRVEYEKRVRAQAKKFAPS

T1 sequence (Q9Y2T6 whole entry): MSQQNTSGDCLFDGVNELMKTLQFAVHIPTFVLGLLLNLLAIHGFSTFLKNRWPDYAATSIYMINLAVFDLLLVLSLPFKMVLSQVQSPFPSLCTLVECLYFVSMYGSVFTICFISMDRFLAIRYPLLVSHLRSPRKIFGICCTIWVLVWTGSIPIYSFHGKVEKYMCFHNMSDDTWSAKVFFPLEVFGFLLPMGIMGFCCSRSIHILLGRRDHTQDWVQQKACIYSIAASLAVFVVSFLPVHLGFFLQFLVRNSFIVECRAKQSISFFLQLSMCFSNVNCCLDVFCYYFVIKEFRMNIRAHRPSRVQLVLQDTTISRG
T3 sequence (Q9HC97 whole entry): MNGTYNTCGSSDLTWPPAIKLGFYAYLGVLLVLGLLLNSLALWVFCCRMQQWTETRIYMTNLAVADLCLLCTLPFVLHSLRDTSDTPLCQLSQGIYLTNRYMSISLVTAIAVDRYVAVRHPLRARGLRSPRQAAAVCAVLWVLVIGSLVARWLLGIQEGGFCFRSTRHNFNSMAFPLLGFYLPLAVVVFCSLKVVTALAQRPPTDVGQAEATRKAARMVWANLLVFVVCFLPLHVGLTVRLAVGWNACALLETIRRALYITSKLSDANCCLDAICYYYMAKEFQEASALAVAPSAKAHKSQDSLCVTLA
Chain of CAAX prenyl protease 1 (P47154 whole entry): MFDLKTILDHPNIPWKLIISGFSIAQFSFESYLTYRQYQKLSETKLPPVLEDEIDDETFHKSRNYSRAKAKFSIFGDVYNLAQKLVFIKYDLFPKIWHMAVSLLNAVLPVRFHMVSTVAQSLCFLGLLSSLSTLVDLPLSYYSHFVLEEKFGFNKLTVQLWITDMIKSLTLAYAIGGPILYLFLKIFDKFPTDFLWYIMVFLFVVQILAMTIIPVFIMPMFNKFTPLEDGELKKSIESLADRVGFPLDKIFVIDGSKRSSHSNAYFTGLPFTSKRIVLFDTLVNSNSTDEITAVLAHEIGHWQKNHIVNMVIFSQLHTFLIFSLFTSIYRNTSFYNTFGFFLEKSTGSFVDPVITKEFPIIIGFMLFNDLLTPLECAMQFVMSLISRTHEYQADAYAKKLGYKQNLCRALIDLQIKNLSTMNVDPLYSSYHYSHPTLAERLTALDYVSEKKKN
Chain of Tyrosine-protein phosphatase non-receptor type 12 (Q05209 whole entry): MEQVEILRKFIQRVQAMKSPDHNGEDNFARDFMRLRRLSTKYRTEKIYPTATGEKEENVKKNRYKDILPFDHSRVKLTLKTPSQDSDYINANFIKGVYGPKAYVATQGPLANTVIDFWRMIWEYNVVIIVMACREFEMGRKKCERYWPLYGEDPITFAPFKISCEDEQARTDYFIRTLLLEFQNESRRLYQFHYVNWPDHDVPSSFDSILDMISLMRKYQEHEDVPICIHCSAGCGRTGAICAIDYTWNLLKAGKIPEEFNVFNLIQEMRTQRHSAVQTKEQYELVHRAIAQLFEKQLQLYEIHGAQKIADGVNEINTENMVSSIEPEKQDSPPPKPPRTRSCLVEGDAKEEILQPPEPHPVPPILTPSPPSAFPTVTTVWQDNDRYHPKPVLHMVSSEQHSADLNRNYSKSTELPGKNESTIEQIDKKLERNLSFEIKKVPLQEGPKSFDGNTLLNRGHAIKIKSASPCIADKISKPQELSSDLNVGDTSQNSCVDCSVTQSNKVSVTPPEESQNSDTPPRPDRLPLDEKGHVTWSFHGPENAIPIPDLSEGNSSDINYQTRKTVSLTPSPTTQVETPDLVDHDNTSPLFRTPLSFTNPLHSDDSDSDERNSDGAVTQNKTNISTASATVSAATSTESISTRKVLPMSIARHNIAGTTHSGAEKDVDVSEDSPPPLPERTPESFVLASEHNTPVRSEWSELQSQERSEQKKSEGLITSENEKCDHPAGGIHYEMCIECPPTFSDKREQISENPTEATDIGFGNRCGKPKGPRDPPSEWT
Chain of Trypsin (P00761 whole entry): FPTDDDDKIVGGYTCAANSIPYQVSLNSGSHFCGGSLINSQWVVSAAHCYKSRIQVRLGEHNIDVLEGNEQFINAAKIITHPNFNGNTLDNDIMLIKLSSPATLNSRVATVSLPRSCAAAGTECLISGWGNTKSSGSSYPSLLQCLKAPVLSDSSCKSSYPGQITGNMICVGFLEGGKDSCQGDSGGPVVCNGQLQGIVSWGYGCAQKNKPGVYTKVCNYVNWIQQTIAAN

CCOC(=O)c1ccccc1NC(=O)CSc1ccc(-c2ccccn2)nn1
> 120 µM (not active): EC50 [1]
active: EC50 [2] 11.7 µM | AC50 [3] 62.6 µM | IC50 (H9c2) 5.14 µM | EC50 [4] 10.8 µM

Cc1ccc(/C=C2\SC(=S)N(CCCC(=O)Nc3cccc(C(=O)O)c3)C2=O)cc1
inactive: IC50 [5] > 32 µM
active: IC50 [6] 15.9 µM | IC50 [7] 2.79 µM | IC50 [8] < 0.5 µM | IC50 [9] 1.39 µM | EC50 [10] 1.45 µM | IC50 [11] 39 µM | IC50 [12] 30.2 µM

CC(C)C(=O)N1CCN(c2nc(-c3ccccc3)c3c(c2C#N)CCCC3)CC1
inactive: IC50 (Coagulation factor XII) > 50 µM
active: AC50 (Trypsin) 1.74 µM | AC50 (CAAX prenyl protease 2 [13]) 7.27 µM | AC50 (CAAX prenyl protease 2 [14]) 14.4 µM | EC50 (Protein RecA) 38.4 µM | AC50 (CAAX prenyl protease 1) 6.09 µM | AC50 [15] 7.76 µM

O=S(=O)(Nc1ccccc1F)c1ccc2c(c1)C1C=CCC1C(c1ccc(F)cc1)N2 (stereo unspecified)
inactive: IC50 (SUMO E1/E2) > 100 µM
